Data: US20230021483A1, “[…] […] METHOD AND CLASSIFICATION OF PHARMACEUTICAL COMPONENTS BY USING TRANSCRIPTOMES” (National Institutes of Biomedical Innovation, Health and …, priority 2016, published 2023)

Experiments:
liver (LV) = assay: Whole organ transcriptome (GeneChip microarray) of liver 6 h after adjuvant administration: sDEGs, hierarchical clustering; assay type: in vivo, C57BL/6 mice; conditions: liver; as to adjuvant group (cluster) in LV: key: G1 (interferon signaling); G2 (metabolism of lipids and lipoproteins); G3 (response to stress); G4 (response to wounding); G5 (phosphate-containing compound metabolic process); G6 (phagosome)
[1] = system: adjuvant-associated biological themes in LV, SP, LN
Source text: A defined sets of genes were selected according to specified criteria (e.g., FC, PA-call, threshold values). Their functional enrichment values were then obtained from TargetMine (Chen, Y. A., Tripathi, L. P. & Mizuguchi, K. PloS one 6, e17844 (2011)) (http://targetmine.mizuguchilab.org/) using the API interface. The following resources were used throughout the analysis via TargetMine Interface (GO, GOSlim, Integrated Pathway, KEGG, Reactome, and the NCI pathway). The Holm-Bonferroni method was used for multiple testing corrections.
Whole organ transcriptome data for each organ from each mouse were analyzed as follows to obtain biological themes for individual samples from each adjuvant-administered group of three mice. […] A set of Pj genes was first defined, where eij/ei(c)>2.0. Biological themes enriched within Pj were then identified using TargetMine (Chen, Y. A. et al., PloS one 6, e17844 (2011)) (http://targetmine.mizuguchilab.org/). Tj denote the resulting list of biological themes, with associated p-values from Fischer's exact test.
Next, the biological themes called by all the individual samples in the group were scored as follows. Having obtained three lists (T1, T2 and T3) for a given experimental condition, a consensus list T of themes was created as T={(t1, p1), (t2, p2), . . . }, where ti is a biological theme that appears in all of T1, T2 and T3, and pi is the smallest of the associated p-values. Only the themes with the p-value of <0.05 were included in T.
To summarize the biological themes in T further, a list of terms considered to be associated with adjuvant activity in general was separately prepared. AT={at1, at2, . . . }, where ati is a pre-selected adjuvant-associated term (e.g., “stress” or “cytokine”). Finally, an enrichment score S for an adjuvant-associated term ati was defined as: S(ati)=Σ−log(pj), where the name of tj in T includes a term ati as a substring and pj is the associated p-value.
This scoring scheme summarizes the relative enrichment of pre-selected adjuvant-associated terms in genes responding to each adjuvant in each organ.

Cc1ccc2c(=O)c3cccc(CC(=O)O)c3oc2c1C [DMXAA, 5,6-dimethylxanthenone-4-acetic acid]
adjuvant group (cluster) in LV (liver (LV); hierarchical clustering): G1 | Number of gene probes with statistically significant changes (sDEGs), LV, Down (liver (LV); i.d. administration, fold change <0.667, p<0.01, customized PA call=1, 6 h after adjuvant): 101 | Number of gene probes with statistically significant changes (sDEGs), LV, Up (liver (LV); i.d. administration, fold change >1.5, p<0.01, customized PA call=1, 6 h after adjuvant): 162 | GO annotation: Cytokine-cytokine receptor interaction (Term: cytokine) ([1]; LV, ID): 0 | GO annotation: Cytokine-cytokine receptor interaction|Endocytosis (Term: cytokine) ([1]; LV, ID): 15.4 | GO annotation: I-kappaB kinase/NF-kappaB signaling (Term: NF-kappa B signaling pathway) ([1]; LV, ID): 0 | GO annotation: NF-kappa B signaling pathway (Term: NF-kappa B signaling pathway) ([1]; LV, ID): 3.77 | GO annotation: TNF signaling pathway (Term: TNF signaling pathway) ([1]; LV, ID): 10.7 | GO annotation: activation of immune response (Term: immune response) ([1]; LV, ID): 5.67 | GO annotation: activation of innate immune response (Term: innate immune response) ([1]; LV, ID): 9.24 | GO annotation: acute inflammatory response (Term: inflammatory response) ([1]; LV, ID): 0 | GO annotation: adaptive immune response (Term: adaptive immune response) ([1]; LV, ID): 0 | GO annotation: apoptotic process (Term: apoptosis) ([1]; LV, ID): 0 | GO annotation: apoptotic signaling pathway (Term: apoptosis) ([1]; LV, ID): 0 | GO annotation: cell chemotaxis (Term: chemotaxis) ([1]; LV, ID): 0 | GO annotation: cell death (Term: cell death) ([1]; LV, ID): 6.04 | GO annotation: cell migration (Term: migration) ([1]; LV, ID): 0 | GO annotation: cellular response to cytokine stimulus (Term: cytokine) ([1]; LV, ID): 16.7 | GO annotation: cellular response to interferon-alpha (Term: IFN alpha) ([1]; LV, ID): 9.3 | GO annotation: cellular response to stress (Term: stress) ([1]; LV, ID): 0 | GO annotation: chemokine production (Term: chemokine) ([1]; LV, ID): 0 | GO annotation: chemokine-mediated signaling pathway (Term: chemokine) ([1]; LV, ID): 0 | GO annotation: chemotaxis (Term: chemotaxis) ([1]; LV, ID): 0 | GO annotation: cytokine biosynthetic process (Term: cytokine) ([1]; LV, ID): 0 | GO annotation: cytokine metabolic process (Term: cytokine) ([1]; LV, ID): 0 | GO annotation: cytokine production (Term: cytokine) ([1]; LV, ID): 6.98 | GO annotation: cytokine secretion (Term: cytokine) ([1]; LV, ID): 0 | GO annotation: cytokine-mediated signaling pathway (Term: cytokine) ([1]; LV, ID): 0 | GO annotation: death (Term: cell death) ([1]; LV, ID): 0 | GO annotation: defense response (Term: defense response) ([1]; LV, ID): 48.4 | GO annotation: defense response to Gram-positive bacterium (Term: defense response) ([1]; LV, ID): 0 | GO annotation: defense response to bacterium (Term: defense response) ([1]; LV, ID): 0 | GO annotation: defense response to other organism (Term: defense response) ([1]; LV, ID): 23.6 | GO annotation: defense response to protozoan (Term: defense response) ([1]; LV, ID): 3.52 | GO annotation: defense response to virus (Term: defense response) ([1]; LV, ID): 15 | GO annotation: granulocyte chemotaxis (Term: chemotaxis) ([1]; LV, ID): 0 | GO annotation: granulocyte migration (Term: migration) ([1]; LV, ID): 0 | GO annotation: immune response (Term: immune response) ([1]; LV, ID): 25.5 | GO annotation: immune response-activating signal transduction (Term: immune response) ([1]; LV, ID): 5.98 | GO annotation: immune response-regulating signaling pathway (Term: immune response) ([1]; LV, ID): 8.39 | GO annotation: inflammatory response (Term: inflammatory response) ([1]; LV, ID): 0 | GO annotation: innate immune response (Term: innate immune response) ([1]; LV, ID): 34.9 | GO annotation: innate immune response-activating signal transduction (Term: innate immune response) ([1]; LV, ID): 7.99 | GO annotation: interferon-alpha production (Term: IFN alpha) ([1]; LV, ID): 6.81 | GO annotation: intrinsic apoptotic signaling pathway (Term: apoptosis) ([1]; LV, ID): 0 | GO annotation: leukocyte chemotaxis (Term: chemotaxis) ([1]; LV, ID): 0 | GO annotation: leukocyte migration (Term: migration) ([1]; LV, ID): 0 | GO annotation: leukocyte migration involved in inflammatory response (Term: inflammatory response) ([1]; LV, ID): 0 | GO annotation: lymphocyte chemotaxis (Term: chemotaxis) ([1]; LV, ID): 0 | GO annotation: lymphocyte migration (Term: migration) ([1]; LV, ID): 0 | GO annotation: myeloid leukocyte migration (Term: migration) ([1]; LV, ID): 0 | GO annotation: negative regulation of apoptotic process (Term: apoptosis) ([1]; LV, ID): 0 | GO annotation: negative regulation of cell death (Term: cell death) ([1]; LV, ID): 0 | GO annotation: negative regulation of cytokine production (Term: cytokine) ([1]; LV, ID): 0 | GO annotation: negative regulation of defense response (Term: defense response) ([1]; LV, ID): 0 | GO annotation: negative regulation of immune response (Term: immune response) ([1]; LV, ID): 0 | GO annotation: negative regulation of innate immune response (Term: innate immune response) ([1]; LV, ID): 0 | GO annotation: negative regulation of programmed cell death (Term: cell death) ([1]; LV, ID): 0 | GO annotation: neutrophil chemotaxis (Term: chemotaxis) ([1]; LV, ID): 0 | GO annotation: neutrophil migration (Term: migration) ([1]; LV, ID): 0 | GO annotation: positive regulation of I-kappaB kinase/NF-kappaB signaling (Term: NF-kappa B signaling pathway) ([1]; LV, ID): 0 | GO annotation: positive regulation of adaptive immune response (Term: adaptive immune response) ([1]; LV, ID): 0 | GO annotation: positive regulation of apoptotic process (Term: apoptosis) ([1]; LV, ID): 0 | GO annotation: positive regulation of cell death (Term: cell death) ([1]; LV, ID): 0 | GO annotation: positive regulation of cell migration (Term: migration) ([1]; LV, ID): 0 | GO annotation: positive regulation of chemokine production (Term: chemokine) ([1]; LV, ID): 0 | GO annotation: positive regulation of chemotaxis (Term: chemotaxis) ([1]; LV, ID): 0 | GO annotation: positive regulation of cytokine biosynthetic process (Term: cytokine) ([1]; LV, ID): 0 | GO annotation: positive regulation of cytokine production (Term: cytokine) ([1]; LV, ID): 7.86 | GO annotation: positive regulation of defense response (Term: defense response) ([1]; LV, ID): 19 | GO annotation: positive regulation of immune response (Term: immune response) ([1]; LV, ID): 10.2 | GO annotation: positive regulation of inflammatory response (Term: inflammatory response) ([1]; LV, ID): 0 | GO annotation: positive regulation of innate immune response (Term: innate immune response) ([1]; LV, ID): 12.4 | GO annotation: positive regulation of interferon-alpha production (Term: IFN alpha) ([1]; LV, ID): 7.85 | GO annotation: positive regulation of leukocyte chemotaxis (Term: chemotaxis) ([1]; LV, ID): 0 | GO annotation: positive regulation of leukocyte migration (Term: migration) ([1]; LV, ID): 0 | GO annotation: positive regulation of programmed cell death (Term: cell death) ([1]; LV, ID): 0 | GO annotation: positive regulation of response to wounding (Term: wounding) ([1]; LV, ID): 0 | GO annotation: positive regulation of tumor necrosis factor superfamily cytokine (Term: cytokine) ([1]; LV, ID): 0 | GO annotation: production of molecular mediator of immune response (Term: immune response) ([1]; LV, ID): 0 | GO annotation: programmed cell death (Term: cell death) ([1]; LV, ID): 0 | GO annotation: regulation of I-kappaB kinase/NF-kappaB signaling (Term: NF-kappa B signaling pathway) ([1]; LV, ID): 0 | GO annotation: regulation of adaptive immune response (Term: adaptive immune response) ([1]; LV, ID): 0 | GO annotation: regulation of apoptotic process (Term: apoptosis) ([1]; LV, ID): 0 | GO annotation: regulation of apoptotic signaling pathway (Term: apoptosis) ([1]; LV, ID): 0 | GO annotation: regulation of cell death (Term: cell death) ([1]; LV, ID): 0 | GO annotation: regulation of cell migration (Term: migration) ([1]; LV, ID): 0 | GO annotation: regulation of chemokine production (Term: chemokine) ([1]; LV, ID): 0 | GO annotation: regulation of chemotaxis (Term: chemotaxis) ([1]; LV, ID): 0 | GO annotation: regulation of cytokine biosynthetic process (Term: cytokine) ([1]; LV, ID): 0 | GO annotation: regulation of cytokine production (Term: cytokine) ([1]; LV, ID): 8.37 | GO annotation: regulation of defense response (Term: defense response) ([1]; LV, ID): 26.8 | GO annotation: regulation of defense response to virus (Term: defense response) ([1]; LV, ID): 0 | GO annotation: regulation of defense response to virus by host (Term: defense response) ([1]; LV, ID): 0 | GO annotation: regulation of immune response (Term: immune response) ([1]; LV, ID): 12.4 | GO annotation: regulation of inflammatory response (Term: inflammatory response) ([1]; LV, ID): 0 | GO annotation: regulation of innate immune response (Term: innate immune response) ([1]; LV, ID): 19.8 | GO annotation: regulation of interferon-alpha production (Term: IFN alpha) ([1]; LV, ID): 7.3 | GO annotation: regulation of intrinsic apoptotic signaling pathway (Term: apoptosis) ([1]; LV, ID): 0 | GO annotation: regulation of leukocyte chemotaxis (Term: chemotaxis) ([1]; LV, ID): 0 | GO annotation: regulation of leukocyte migration (Term: migration) ([1]; LV, ID): 0 | GO annotation: regulation of programmed cell death (Term: cell death) ([1]; LV, ID): 0 | GO annotation: regulation of response to stress (Term: stress) ([1]; LV, ID): 21 | GO annotation: regulation of response to wounding (Term: wounding) ([1]; LV, ID): 3.49 | GO annotation: regulation of tumor necrosis factor superfamily cytokine production (Term: cytokine) ([1]; LV, ID): 0 | GO annotation: response to cytokine (Term: cytokine) ([1]; LV, ID): 26.5 | GO annotation: response to interferon-alpha (Term: IFN alpha) ([1]; LV, ID): 11.3 | GO annotation: response to stress (Term: stress) ([1]; LV, ID): 40.4 | GO annotation: response to wounding (Term: wounding) ([1]; LV, ID): 0 | GO annotation: taxis (Term: chemotaxis) ([1]; LV, ID): 0 | GO annotation: tumor necrosis factor superfamily cytokine production (Term: cytokine) ([1]; LV, ID): 0 | IFN beta: cellular response to interferon-beta ([1]; LV, ID): 16.7 | IFN beta: interferon-beta production ([1]; LV, ID): 0 | IFN beta: positive regulation of interferon-beta production ([1]; LV, ID): 5.66 | IFN beta: regulation of interferon-beta production ([1]; LV, ID): 3.09 | IFN beta: response to interferon-beta ([1]; LV, ID): 17.9 | IFN gamma: cellular response to interferon-gamma ([1]; LV, ID): 7.37 | IFN gamma: interferon-gamma production ([1]; LV, ID): 0 | IFN gamma: regulation of interferon-gamma production ([1]; LV, ID): 0 | IFN gamma: response to interferon-gamma ([1]; LV, ID): 10.3 | interleukin-6: interleukin-6 production ([1]; LV, ID): 0 | interleukin-6: positive regulation of interleukin-6 production ([1]; LV, ID): 0 | interleukin-6: regulation of interleukin-6 production ([1]; LV, ID): 0 | interleukin-12: interleukin-12 production ([1]; LV, ID): 0 | interleukin-12: positive regulation of interleukin-12 production ([1]; LV, ID): 0 | interleukin-12: regulation of interleukin-12 production ([1]; LV, ID): 0 | GO annotation: adaptive immune response based on somatic recombination of immune receptors built from immunoglobulin superfamily domains (Term: adaptive immune response) ([1]; mouse, in vivo): 0 | GO annotation: regulation of adaptive immune response based on somatic recombination of immune receptors built from immunoglobulin superfamily domains (Term: adaptive immune response) ([1]; mouse, in vivo): 0
